In ChEMBL document CHEMBL1201862, “PubChem BioAssay data set” (2004):
The source made the active and inactive calls.

Experiments:
HEK293 [1] = assay: Fluorescence-based counterscreen for potentiators or agonists of NPY-Y2: cell-based high-throughput dose response assay to identify inhibitors of cyclic nucleotide gated ion channel (CNGC) activity. In this assay, the parental HEK293 cell line transfected with a cyclic-nucleotide gated ion channel (CNGC)-based cAMP sensor is used to measure inhibition of isoproterenol-induced CNGC activity by test compound.; assay type: functional; conditions: Homo sapiens
[2] = target: T1, Neuropeptide Y receptor type 2 (Homo sapiens, UniProt P49146); assay: Fluorescence-based cell-based high-throughput dose response assay for agonists of NPY-Y2. [Related pubchem assays: 1703 (Screening assay (CNGC inhibitors).), 1359 (Screening assay (NPY-Y2 potentiators or agonists).), 1304 (Screening assay (NPY-Y1 potentiators or agonists).), 1710 (Screening assay (NPY-Y2 agonists).), 1791 (Summary AID.)]; assay type: functional
T1 sequence (P49146 whole entry): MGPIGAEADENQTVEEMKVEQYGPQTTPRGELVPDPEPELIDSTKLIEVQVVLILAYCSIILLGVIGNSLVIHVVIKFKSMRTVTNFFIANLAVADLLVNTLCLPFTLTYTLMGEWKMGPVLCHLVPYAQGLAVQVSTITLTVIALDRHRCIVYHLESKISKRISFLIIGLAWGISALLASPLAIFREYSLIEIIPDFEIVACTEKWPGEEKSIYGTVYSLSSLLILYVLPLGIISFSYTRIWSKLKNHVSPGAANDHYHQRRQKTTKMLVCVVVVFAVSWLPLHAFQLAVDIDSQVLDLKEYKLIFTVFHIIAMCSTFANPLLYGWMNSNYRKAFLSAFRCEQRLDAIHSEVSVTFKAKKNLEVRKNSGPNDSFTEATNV

[3] = target: T2, Neuropeptide Y receptor type 1 (Homo sapiens, UniProt P25929); assay: Fluorescence-based counterscreen for agonists of NPY-Y2: cell-based high-throughput dose response assay for agonists of NPY-Y1.; assay type: functional
T2 sequence (P25929 whole entry): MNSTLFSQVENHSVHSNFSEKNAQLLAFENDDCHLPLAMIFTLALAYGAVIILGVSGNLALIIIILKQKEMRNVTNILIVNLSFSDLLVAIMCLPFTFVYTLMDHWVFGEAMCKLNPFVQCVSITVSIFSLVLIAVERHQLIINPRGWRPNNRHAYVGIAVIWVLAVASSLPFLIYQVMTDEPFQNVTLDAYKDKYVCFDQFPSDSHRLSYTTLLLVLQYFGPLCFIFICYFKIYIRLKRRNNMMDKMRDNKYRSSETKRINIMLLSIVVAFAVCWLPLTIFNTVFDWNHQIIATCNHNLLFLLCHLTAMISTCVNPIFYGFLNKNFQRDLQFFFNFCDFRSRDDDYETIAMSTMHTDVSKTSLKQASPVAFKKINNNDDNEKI

[4] = target: Guanyl-specific ribonuclease T1 (Aspergillus oryzae (strain ATCC 42149 / RIB 40), UniProt P00651); assay: RNase T1 inhibitors, dose response, counter-screen for TPT1 inhibitor project, biochemical, fluorescence polarization, 1536-well (AID 2167)
Chain of Guanyl-specific ribonuclease T1 (P00651 whole entry): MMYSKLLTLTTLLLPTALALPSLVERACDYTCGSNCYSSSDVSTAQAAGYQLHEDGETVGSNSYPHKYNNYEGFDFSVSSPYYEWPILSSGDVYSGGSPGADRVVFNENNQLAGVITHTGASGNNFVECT

[5] = target: Likely tRNA 2'-phosphotransferase (Candida albicans (strain SC5314 / ATCC MYA-2876) (Yeast), UniProt Q5A7N4); assay: TPT1 tRNA phosphotransferase inhibitors, dose response, biochemical, fluorescence polarization (AID 2160)
Chain of Likely tRNA 2'-phosphotransferase (Q5A7N4 whole entry): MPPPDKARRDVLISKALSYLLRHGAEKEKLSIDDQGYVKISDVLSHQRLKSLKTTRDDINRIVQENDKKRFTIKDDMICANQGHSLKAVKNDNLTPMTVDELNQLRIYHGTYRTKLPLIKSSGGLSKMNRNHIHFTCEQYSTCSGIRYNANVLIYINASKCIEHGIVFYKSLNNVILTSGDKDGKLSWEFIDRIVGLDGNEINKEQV

Tumor necrosis factor = Tumor necrosis factor (Homo sapiens, UniProt P01375); assay: TNFa-triggered NF-kB activation inhibitors, SAR follow-up, cell-based, revised (AID 2337); assay type: functional
Chain of Tumor necrosis factor (P01375 whole entry, the tested form may be a part): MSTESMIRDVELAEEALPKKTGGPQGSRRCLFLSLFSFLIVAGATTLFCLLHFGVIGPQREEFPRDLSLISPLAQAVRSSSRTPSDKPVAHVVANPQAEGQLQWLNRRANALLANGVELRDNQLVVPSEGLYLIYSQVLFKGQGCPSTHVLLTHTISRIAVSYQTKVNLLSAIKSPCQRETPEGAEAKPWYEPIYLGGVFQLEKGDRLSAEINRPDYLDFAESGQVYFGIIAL

[6] = target: T3, Nucleotide-binding oligomerization domain-containing protein 1 (Homo sapiens, UniProt Q9Y239); assay: NOD1 signaling inhibitors, SAR follow-up, revised (AID 2333); assay type: functional
T3 sequence (Q9Y239 whole entry): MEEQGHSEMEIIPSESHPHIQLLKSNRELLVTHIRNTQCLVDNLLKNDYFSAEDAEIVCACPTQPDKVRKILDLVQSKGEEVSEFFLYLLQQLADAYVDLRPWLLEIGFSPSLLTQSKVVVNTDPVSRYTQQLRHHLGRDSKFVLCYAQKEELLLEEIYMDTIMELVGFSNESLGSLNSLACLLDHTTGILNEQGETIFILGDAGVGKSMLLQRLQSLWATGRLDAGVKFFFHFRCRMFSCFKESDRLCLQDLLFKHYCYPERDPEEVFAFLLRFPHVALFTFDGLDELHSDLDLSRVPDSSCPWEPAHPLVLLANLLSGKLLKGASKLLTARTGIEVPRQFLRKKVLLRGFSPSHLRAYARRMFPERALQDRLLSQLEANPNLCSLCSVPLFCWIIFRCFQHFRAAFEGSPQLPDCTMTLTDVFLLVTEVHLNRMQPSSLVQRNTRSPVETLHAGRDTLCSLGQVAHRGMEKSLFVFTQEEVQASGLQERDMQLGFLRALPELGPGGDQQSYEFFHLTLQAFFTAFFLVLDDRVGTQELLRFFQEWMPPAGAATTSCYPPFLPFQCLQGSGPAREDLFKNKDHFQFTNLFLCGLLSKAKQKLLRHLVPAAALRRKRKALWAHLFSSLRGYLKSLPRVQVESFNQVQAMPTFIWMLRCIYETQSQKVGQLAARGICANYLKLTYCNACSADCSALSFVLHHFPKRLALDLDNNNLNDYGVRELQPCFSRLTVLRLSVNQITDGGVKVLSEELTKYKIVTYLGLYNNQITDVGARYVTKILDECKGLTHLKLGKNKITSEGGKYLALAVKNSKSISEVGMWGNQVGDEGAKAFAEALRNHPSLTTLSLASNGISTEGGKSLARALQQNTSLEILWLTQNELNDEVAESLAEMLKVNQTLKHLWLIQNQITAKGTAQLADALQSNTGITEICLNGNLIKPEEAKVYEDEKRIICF

[7] = target: Nucleotide-binding oligomerization domain-containing protein 2 (Homo sapiens, UniProt Q9HC29); assay: PubChem AID 2334; assay type: functional
Chain of Nucleotide-binding oligomerization domain-containing protein 2 (Q9HC29 whole entry, the tested form may be a part): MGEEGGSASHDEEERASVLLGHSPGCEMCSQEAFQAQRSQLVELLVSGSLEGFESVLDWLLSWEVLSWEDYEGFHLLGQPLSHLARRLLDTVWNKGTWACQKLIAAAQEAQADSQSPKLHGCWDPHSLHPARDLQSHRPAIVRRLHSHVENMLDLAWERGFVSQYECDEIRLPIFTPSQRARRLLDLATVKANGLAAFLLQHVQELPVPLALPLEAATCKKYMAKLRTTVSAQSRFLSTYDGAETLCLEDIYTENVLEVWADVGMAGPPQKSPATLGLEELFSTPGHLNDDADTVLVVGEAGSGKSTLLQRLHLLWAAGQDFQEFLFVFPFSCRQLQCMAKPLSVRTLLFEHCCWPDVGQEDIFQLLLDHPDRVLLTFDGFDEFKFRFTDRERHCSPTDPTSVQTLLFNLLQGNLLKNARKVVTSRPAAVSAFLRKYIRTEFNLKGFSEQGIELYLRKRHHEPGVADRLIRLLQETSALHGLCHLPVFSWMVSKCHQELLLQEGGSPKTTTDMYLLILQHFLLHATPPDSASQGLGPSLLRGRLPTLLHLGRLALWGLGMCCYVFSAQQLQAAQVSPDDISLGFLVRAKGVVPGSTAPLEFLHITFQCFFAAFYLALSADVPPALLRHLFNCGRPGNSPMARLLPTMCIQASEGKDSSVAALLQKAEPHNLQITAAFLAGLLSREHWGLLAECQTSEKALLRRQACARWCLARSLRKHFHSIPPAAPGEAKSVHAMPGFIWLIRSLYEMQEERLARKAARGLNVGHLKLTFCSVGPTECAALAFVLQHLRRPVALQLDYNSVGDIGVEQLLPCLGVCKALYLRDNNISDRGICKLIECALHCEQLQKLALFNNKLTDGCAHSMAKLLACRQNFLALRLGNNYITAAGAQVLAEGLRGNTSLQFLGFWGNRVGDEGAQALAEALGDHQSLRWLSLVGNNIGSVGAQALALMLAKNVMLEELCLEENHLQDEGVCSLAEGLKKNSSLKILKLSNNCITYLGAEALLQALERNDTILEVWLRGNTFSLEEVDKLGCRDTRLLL

HEK293 [8] = assay: cells; conditions: Homo sapiens
[9] = target: Eukaryotic translation initiation factor 4H (Homo sapiens, UniProt Q15056); assay: human eIF4H binding inhibitors, primary screen, translation initiation inhibitor project, biochemical, uHTS, fluorescence polarization (AID 2012)
[10] = target: Polyadenylate-binding protein 1 (Homo sapiens, UniProt P11940); assay: PABP poly(A) RNA binding inhibitors, primary screen, biochemical, fluorescence polarization, uHTS (AID 2014)
Chain of Polyadenylate-binding protein 1 (P11940 whole entry): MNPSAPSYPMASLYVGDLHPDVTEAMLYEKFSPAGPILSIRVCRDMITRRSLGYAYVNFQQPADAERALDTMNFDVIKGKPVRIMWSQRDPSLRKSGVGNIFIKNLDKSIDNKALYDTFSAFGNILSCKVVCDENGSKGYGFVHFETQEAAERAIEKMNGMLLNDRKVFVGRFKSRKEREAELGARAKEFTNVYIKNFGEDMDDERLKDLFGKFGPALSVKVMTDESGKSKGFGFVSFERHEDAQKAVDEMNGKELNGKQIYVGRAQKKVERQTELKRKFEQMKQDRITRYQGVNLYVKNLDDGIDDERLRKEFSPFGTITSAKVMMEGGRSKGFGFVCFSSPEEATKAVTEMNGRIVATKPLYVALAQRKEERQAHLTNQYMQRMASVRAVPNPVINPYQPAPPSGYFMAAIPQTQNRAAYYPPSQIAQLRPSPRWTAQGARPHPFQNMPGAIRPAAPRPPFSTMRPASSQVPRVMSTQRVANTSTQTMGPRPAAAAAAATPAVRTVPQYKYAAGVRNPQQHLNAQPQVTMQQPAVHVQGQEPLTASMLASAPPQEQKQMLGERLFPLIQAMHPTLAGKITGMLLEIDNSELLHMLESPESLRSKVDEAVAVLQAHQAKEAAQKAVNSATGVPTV

[11] = target: DNA dC->dU-editing enzyme APOBEC-3A (Homo sapiens, UniProt P31941); assay: Dose Response confirmation of small molecule APOBEC3A DNA Deaminase Inhibitors via a fluorescence-based single-stranded DNA deaminase assay. [Related pubchem assays (depositor defined):AID493011, AID493024]; assay type: functional
Chain of DNA dC->dU-editing enzyme APOBEC-3A (P31941 whole entry): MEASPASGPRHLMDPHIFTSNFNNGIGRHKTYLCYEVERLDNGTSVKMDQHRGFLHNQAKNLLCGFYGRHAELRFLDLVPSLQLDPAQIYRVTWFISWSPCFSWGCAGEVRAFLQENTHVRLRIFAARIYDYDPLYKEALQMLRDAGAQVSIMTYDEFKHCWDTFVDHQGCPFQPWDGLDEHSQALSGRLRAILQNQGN

[12] = target: DNA dC->dU-editing enzyme APOBEC-3G (Homo sapiens, UniProt Q9HC16); assay type: functional;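 also: Dose-response counterscreen measuring inhibition of APOBEC3G DNA deaminase activity, run while confirming APOBEC3A inhibitors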
Chain of DNA dC->dU-editing enzyme APOBEC-3G (Q9HC16 whole entry): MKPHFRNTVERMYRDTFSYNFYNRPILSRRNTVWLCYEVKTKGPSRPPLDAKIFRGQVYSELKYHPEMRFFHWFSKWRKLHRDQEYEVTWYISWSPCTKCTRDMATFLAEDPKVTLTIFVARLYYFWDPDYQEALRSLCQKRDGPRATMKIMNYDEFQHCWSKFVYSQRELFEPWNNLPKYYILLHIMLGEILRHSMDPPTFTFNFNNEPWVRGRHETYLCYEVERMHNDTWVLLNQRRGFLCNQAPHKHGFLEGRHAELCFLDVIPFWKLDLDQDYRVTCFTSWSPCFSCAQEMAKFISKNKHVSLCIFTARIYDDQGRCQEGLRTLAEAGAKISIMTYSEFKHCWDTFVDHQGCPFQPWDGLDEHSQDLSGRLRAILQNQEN

X-box-binding protein 1 = X-box-binding protein 1 (Homo sapiens, UniProt P17861); assay type: functional, Cricetulus griseus;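 also: confirmatory dose-response counter-screen serving a CHOP assay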
Chain of X-box-binding protein 1 (P17861 whole entry): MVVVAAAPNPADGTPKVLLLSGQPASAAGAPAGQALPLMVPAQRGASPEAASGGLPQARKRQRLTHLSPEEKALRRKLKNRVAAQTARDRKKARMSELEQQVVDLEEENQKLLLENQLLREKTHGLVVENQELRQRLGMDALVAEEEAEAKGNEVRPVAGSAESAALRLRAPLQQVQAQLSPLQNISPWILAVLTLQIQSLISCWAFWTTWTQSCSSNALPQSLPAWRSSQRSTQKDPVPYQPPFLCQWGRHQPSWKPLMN

[13] = target: T4, Replicative DNA helicase DnaB (Mycobacterium tuberculosis, UniProt P9WMR3); assay: DnaB intein splicing inhibitors, dose response, biochemical, cell-free fluorescence (AID 449749); assay type: functional
T4 sequence (P9WMR3 whole entry): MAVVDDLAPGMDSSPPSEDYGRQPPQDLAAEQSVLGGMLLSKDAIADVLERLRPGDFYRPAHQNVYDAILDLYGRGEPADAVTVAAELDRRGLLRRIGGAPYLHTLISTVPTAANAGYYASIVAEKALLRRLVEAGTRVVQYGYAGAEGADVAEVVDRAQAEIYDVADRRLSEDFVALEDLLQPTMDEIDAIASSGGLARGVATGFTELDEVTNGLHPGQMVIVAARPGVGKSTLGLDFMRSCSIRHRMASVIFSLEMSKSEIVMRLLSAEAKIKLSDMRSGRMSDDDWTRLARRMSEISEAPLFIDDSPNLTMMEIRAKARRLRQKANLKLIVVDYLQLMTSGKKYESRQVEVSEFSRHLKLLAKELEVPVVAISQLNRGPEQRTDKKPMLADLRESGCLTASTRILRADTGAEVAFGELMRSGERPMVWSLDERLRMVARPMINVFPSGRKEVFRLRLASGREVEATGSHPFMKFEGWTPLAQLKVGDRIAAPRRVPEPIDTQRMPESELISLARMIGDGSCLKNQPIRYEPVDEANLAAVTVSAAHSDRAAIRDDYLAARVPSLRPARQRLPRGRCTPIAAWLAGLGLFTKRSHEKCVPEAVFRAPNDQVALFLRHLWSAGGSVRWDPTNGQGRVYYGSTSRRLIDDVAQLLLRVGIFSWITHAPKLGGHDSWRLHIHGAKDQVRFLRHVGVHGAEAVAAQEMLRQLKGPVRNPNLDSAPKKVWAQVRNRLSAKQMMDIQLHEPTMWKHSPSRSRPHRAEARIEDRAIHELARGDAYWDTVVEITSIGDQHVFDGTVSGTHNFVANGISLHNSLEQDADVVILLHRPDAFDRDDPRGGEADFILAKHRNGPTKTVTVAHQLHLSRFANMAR

Protein RecA = target: T5, Protein RecA (Mycobacterium tuberculosis, UniProt P9WHJ3); assay: Fluorescence Cell-Free Homogeneous Dose Retest to Identify Inhibitors of RecA-Intein Splicing Activity. [Related pubchem assays (depositor defined):AID2097, AID2223, AID489010, AID492950]; assay type: functional
T5 sequence (P9WHJ3 whole entry): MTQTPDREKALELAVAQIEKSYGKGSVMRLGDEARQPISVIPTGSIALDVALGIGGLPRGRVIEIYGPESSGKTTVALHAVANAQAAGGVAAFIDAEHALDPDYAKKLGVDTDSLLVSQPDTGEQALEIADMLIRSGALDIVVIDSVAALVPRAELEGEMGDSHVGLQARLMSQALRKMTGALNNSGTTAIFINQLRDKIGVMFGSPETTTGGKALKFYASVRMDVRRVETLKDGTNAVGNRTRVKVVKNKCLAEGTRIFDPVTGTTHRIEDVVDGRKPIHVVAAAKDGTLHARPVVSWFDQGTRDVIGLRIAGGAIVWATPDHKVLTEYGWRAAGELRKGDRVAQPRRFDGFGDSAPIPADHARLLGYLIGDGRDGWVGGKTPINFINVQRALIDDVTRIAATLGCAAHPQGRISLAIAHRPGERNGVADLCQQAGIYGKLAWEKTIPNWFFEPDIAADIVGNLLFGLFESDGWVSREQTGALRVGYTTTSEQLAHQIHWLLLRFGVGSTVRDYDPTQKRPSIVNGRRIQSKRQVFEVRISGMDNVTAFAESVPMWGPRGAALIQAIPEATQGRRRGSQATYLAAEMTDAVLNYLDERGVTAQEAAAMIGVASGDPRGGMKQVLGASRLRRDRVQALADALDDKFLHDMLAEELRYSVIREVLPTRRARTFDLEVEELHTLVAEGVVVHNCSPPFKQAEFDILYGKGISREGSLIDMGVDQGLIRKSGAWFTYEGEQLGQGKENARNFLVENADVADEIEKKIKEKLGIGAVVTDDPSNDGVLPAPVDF

`COC(=O)c1ccc(NC(=O)CSc2nnc(C(C)NC(=O)c3ccccc3Cl)n2C)cc1` (stereo not drawn) was tested, and the EC50 (HEK293 [1]) was 12.7 µM (not active), the EC50 [2] was 19.8 µM (not active) and the EC50 [3] was 26.4 µM (not active).

`Cc1ccc(N2C(=O)NC(=O)/C(=C\c3ccc([N+](=O)[O-])o3)C2=O)cc1` was tested, and the IC50 [4] was > 55.7 µM (not active) and the IC50 [5] was 5.55 µM (active).

For `COC(=O)c1scc(S(=O)(=O)C(C)C)c1NN=C(C#N)C(=O)c1ccc(Cl)cc1`, the IC50 (Tumor necrosis factor) was 10.9 µM (active), the IC50 [6] was 5.43 µM (active) and the IC50 [7] was 5.88 µM (active). The IC50 (HEK293 [8]) was > 20 µM (inactive).

For `CC[n+]1c(C)n(CC(O)COCC2CC=CCC2)c2ccccc21` (stereo not drawn), the IC50 [9] was 92.2 µM (active), the IC50 [10] was 5.47 µM (active) and the IC50 [11] was 2.12 µM (active). For the same molecule, the IC50 [12] was 3.86 µM (active).

For `Cc1cc(-c2[nH]nc3c2C(c2ccc(Cl)cc2)C(C#N)=C(N)O3)c(C)s1` (stereo not drawn), the “Absolute IC50 (XBP1)” value (X-box-binding protein 1) was 10 µM, the AC50 [13] was 3.07 µM (active) and the EC50 (Protein RecA) was 3.42 µM (active).

In the case of `C[N+]1(CCOS(=O)C23CC4CC(CC(C4)C2)C3)CCOCC1` (stereo not drawn), the IC50 [9] is reported as > 100 µM (inactive) and the IC50 [10] is reported as 11.8 µM (active).

In the case of `CCC(=O)N1CCc2cc(S(=O)(=O)N3CCN(c4ccc(C(C)=O)cc4)CC3)ccc21`, the IC50 (Tumor necrosis factor) is reported as > 20 µM (inactive), the IC50 [6] is reported as > 20 µM (inactive) and the IC50 [7] is reported as > 20 µM (inactive). For the same molecule, the IC50 (HEK293 [8]) was > 20 µM (inactive).

`Oc1ccc(N=Nc2cccc(C(F)(F)F)c2)cc1/C=N/c1ccc(N2CCOCC2)cc1` was tested, and the “Absolute IC50 (XBP1)” value (X-box-binding protein 1) was 10 µM.
